Data published in ChEMBL document CHEMBL1201862, “PubChem BioAssay data set” (2004).
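Results reflect a 48-hour exposure of cells in 96-well plates to compound at five concentrations. The concentration for 50% growth inhibition is given as GI50.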 Active and inactive are the calls of the source. Cut-off read from the data, not from the text of the source: active = GI50 up to about 1.1 µM and inactive = higher.

Tests used:
Assay in all cases: NCI-60 cell line screen, 48 h
A498 = tested on: A498
A549 = tested on: A549
CCRF-CEM = tested on: CCRF-CEM
HCC 2998 = tested on: HCC 2998
HT-29 = tested on: HT-29
Hs-578T = tested on: Hs-578T
IGROV-1 = tested on: IGROV-1
MOLT-4 = tested on: MOLT-4
Malme-3M = tested on: Malme-3M
NCI-H226 = tested on: NCI-H226
NCI-H23 = tested on: NCI-H23
NCI-H460 = tested on: NCI-H460
SF-295 = tested on: SF-295
SK-MEL-5 = tested on: SK-MEL-5
SR = tested on: SR
SW-620 = tested on: SW-620
U-251 = tested on: U-251
UO-31 = tested on: UO-31
TK-10 = tested on: TK-10

| SMILES | GI50 (A498) | GI50 (A549) | GI50 (CCRF-CEM) | GI50 (HCC 2998) | GI50 (HT-29) | GI50 (Hs-578T) | GI50 (IGROV-1) | GI50 (MOLT-4) | GI50 (Malme-3M) | GI50 (NCI-H226) | GI50 (NCI-H23) | GI50 (NCI-H460) | GI50 (SF-295) | GI50 (SK-MEL-5) | GI50 (SR) | GI50 (SW-620) | GI50 (U-251) | GI50 (UO-31) | GI50 (TK-10) |
| --- | --- | --- | --- | --- | --- | --- | --- | --- | --- | --- | --- | --- | --- | --- | --- | --- | --- | --- | --- |
| CCOC(=O)c1nnsc1NC(=O)NCCCCCCn1c(=O)n(CCCCCCNC(=O)Nc2snnc2C(=O)OCC)c(=O)n(CCCCCCNC(=O)Nc2snnc2C(=O)OCC)c1=O | 67.1 µM (inactive) | > 100 µM (inactive) | 38.5 µM (inactive) | 39.5 µM (inactive) | > 100 µM (inactive) | 13.7 µM (inactive) | 32.1 µM (inactive) | 31.1 µM (inactive) | 25.1 µM (inactive) | 18.1 µM (inactive) | 24.9 µM (inactive) | 21.5 µM (inactive) | 16.9 µM (inactive) | 71.1 µM (inactive) | > 100 µM (inactive) | 67.6 µM (inactive) | 19.3 µM (inactive) | 45.4 µM (inactive) | – |
| O=[N+]([O-])/C(C(Cl)=C(Cl)Cl)=C(\N1CCCCC1)n1nnc2ccccc21 | 19.2 µM (inactive) | 22.6 µM (inactive) | – | – | 19.5 µM (inactive) | 32.9 µM (inactive) | 16.2 µM (inactive) | 0.443 µM (active) | 21.6 µM (inactive) | 20 µM (inactive) | 19.1 µM (inactive) | 22.4 µM (inactive) | 17.5 µM (inactive) | 17.5 µM (inactive) | 16.4 µM (inactive) | 19.1 µM (inactive) | 16.9 µM (inactive) | 18.2 µM (inactive) | 18.2 µM (inactive) |
| [O-][S+](C(c1ccccc1)=P(c1ccccc1)(c1ccccc1)c1ccccc1)c1ccc(Cl)cc1 (centres undefined) | 11.1 µM (inactive) | – | 20.9 µM (inactive) | 28.4 µM (inactive) | 21.3 µM (inactive) | 19.8 µM (inactive) | 21.8 µM (inactive) | 29.1 µM (inactive) | – | 55.7 µM (inactive) | 26.7 µM (inactive) | 24.2 µM (inactive) | 33.7 µM (inactive) | 12.1 µM (inactive) | 19.5 µM (inactive) | 23.6 µM (inactive) | 21.2 µM (inactive) | 46.1 µM (inactive) | 31.9 µM (inactive) |
| CCCC[C@@H]1CCN2C[C@@H](O)[C@@H](O)[C@@H]2[C@H]1O | > 100 µM (inactive) | > 100 µM (inactive) | > 100 µM (inactive) | > 100 µM (inactive) | > 100 µM (inactive) | > 100 µM (inactive) | > 100 µM (inactive) | > 100 µM (inactive) | > 100 µM (inactive) | > 100 µM (inactive) | > 100 µM (inactive) | > 100 µM (inactive) | > 100 µM (inactive) | > 100 µM (inactive) | > 100 µM (inactive) | > 100 µM (inactive) | > 100 µM (inactive) | > 100 µM (inactive) | – |
| O=c1[nH]nc(-c2ccccc2)n1/N=C\c1ccccc1 | > 100 µM (inactive) | > 100 µM (inactive) | > 100 µM (inactive) | > 100 µM (inactive) | > 100 µM (inactive) | > 100 µM (inactive) | – | > 100 µM (inactive) | > 100 µM (inactive) | > 100 µM (inactive) | > 100 µM (inactive) | > 100 µM (inactive) | 29 µM (inactive) | > 100 µM (inactive) | > 100 µM (inactive) | > 100 µM (inactive) | > 100 µM (inactive) | > 100 µM (inactive) | > 100 µM (inactive) |
| [O-][S@@+]1c2ccc3ccccc3c2N[C@@H]2[C@H]1[C@H]1C=C[C@@H]2C1 | 71.6 µM (inactive) | 57.5 µM (inactive) | 23.6 µM (inactive) | – | 34.9 µM (inactive) | 30.1 µM (inactive) | 21.2 µM (inactive) | 26.6 µM (inactive) | 58.9 µM (inactive) | 50.8 µM (inactive) | 35.3 µM (inactive) | 37.6 µM (inactive) | 40.5 µM (inactive) | 28 µM (inactive) | 30 µM (inactive) | 34 µM (inactive) | 76.4 µM (inactive) | 64.4 µM (inactive) | 51.1 µM (inactive) |
| CC1(O)C(=O)OC2CC([C@]3(O)CCC4[C@@H]5C[C@H]6O[C@]67[C@@H](O)C=CC(=O)[C@]7(C)C5CC[C@@]43C)C1(C)C2 (some centres undefined) | 31.3 µM (inactive) | 38.7 µM (inactive) | 2.03 µM (inactive) | 42 µM (inactive) | 17.1 µM (inactive) | 26.3 µM (inactive) | 23.1 µM (inactive) | 2.89 µM (inactive) | 3.76 µM (inactive) | – | 7.13 µM (inactive) | 30.5 µM (inactive) | 34.6 µM (inactive) | 16.9 µM (inactive) | 2.69 µM (inactive) | 3.07 µM (inactive) | 23.5 µM (inactive) | 22.9 µM (inactive) | 8.73 µM (inactive) |
